The values below come from patent US9951039B2, “Pyrimidines for treatment of bacterial infections” (The Hong Kong Polytechnic University, priority 2016, dated 2018).

In brackets after ≈: the same amount, converted by molar mass.

The target in assay [1] is T1, S. aureus FtsZ (Staphylococcus aureus, UniProt P0A031).
T1 construct: 6-histidine tag; made in house; host or cells: E. coli BL21(DE3)
T1 sequence (P0A031 1-390): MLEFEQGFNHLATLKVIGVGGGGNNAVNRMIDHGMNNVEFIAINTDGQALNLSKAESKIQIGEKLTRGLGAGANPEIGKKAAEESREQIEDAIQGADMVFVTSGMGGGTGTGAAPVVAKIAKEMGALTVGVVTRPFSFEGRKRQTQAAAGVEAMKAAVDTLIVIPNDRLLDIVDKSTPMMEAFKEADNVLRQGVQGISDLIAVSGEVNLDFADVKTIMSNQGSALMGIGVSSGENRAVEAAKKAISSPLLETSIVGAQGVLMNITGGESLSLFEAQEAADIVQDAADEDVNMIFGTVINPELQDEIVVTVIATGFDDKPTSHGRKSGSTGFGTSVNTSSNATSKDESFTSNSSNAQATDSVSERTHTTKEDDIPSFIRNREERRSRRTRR
Kind of assay: GTPase hydrolysis assay (CytoPhos phosphate assay). The format is biochemical. The procedure:
(§1) Procedure for expression and purification of S. aureus FtsZ protein: S. aureus FtsZ protein was prepared as previous reported.^16a In brief, E. coli BL21(DE3) cells, transformed with a pRSET-A-S vector carrying S. aureus FtsZ with a 6-histidine tag attached, were streaked on a nutrient agar plate containing 50 μg/mL ampicillin. After overnight incubation at 37° C., a single colony was inoculated into 5 mL of Luria-Bertani (LB) medium in the presence of 50 μg/mL ampicillin, which was then incubated at 37° C., with shaking at 250 rpm for 16 h. The overnight culture was transferred into a fresh 2×TY medium in a dilution ratio of 1:100 and 50 μg/mL ampicillin was then added, followed by incubation at 37° C. with shaking at 250 rpm. When OD600 reached 0.8, protein expression was induced with 0.4 mM isopropyl-β-D-thiogalactopyranoside (IPTG) for 4 h. Cells were harvested by centrifugation at 9000 rpm for 20 min at 4° C. […]
Procedure: The inhibitory effect of compound 14av_amine16 on GTPase hydrolysis activity was investigated according to the protocol described previously.^18 The GTPase activity of S. aureus FtsZ was estimated in a 96-well microplate using a CytoPhos phosphate assay Biochem Kit based on the manufacturer's instructions. […] The precipitated inorganic phosphate was quantified by measuring the absorbance at 650 nm in a microplate reader. […]

Assay [2] has as its target T1, S. aureus FtsZ. Kind of assay: FtsZ polymerization light scattering assay. The note with it: 30 μm of compound; FtsZ 12.5 μM, 1 mM GTP. It counts as biochemical. The procedure: as §1, with “h.” for “h. Cells were harvested by centrifugation at 9000 rpm for 20 min at 4° C.”
Procedure: The polymerization of recombinant S. aureus FtsZ was measured using a 90° light scattering in a thermostatically (37° C.) controlled Fluorescence Spectrometer LS 50B according to previous reports.^16a,19 Both excitation and emission wavelengths were fixed to 600 nm with a slit width of 2.5 nm. […] After 8 min, the final concentration of 1 mM GTP was added at the last fraction and the increase in light scattering measured for an additional 2000 seconds. The rate and extent of polymerization were measured. […]

In assay [3] the test system is USA300 #417 (community-associated MRSA). Kind of assay: MIC against clinically isolated strain 6. It counts as cell-based, S. aureus. The note with it: Staphylococcus aureus. The procedure:
(§2) Procedure of Antimicrobial susceptibility test: The MIC value of compounds was measured in the antimicrobial susceptibility test using the broth microdilution procedure in accordance with the CLSI guidelines.^21 Cation-adjusted Mueller Hinton broth (CA-MHB) was used for all the S. aureus strains in the assay. Cells in exponential phase of growth were diluted to approximately 5×10^5 cfu/mL. Stock solutions of each compound were freshly dissolved in dimethyl sulfoxide (DMSO). Then, serial dilutions of each compound in CA-MHB medium were added into 96-well microplate. The final percentage of DMSO in the assay was 1%. Control experiments were performed with 1% DMSO instead of the compound solution. After being incubated at 37° C. for 18 h, OD600 value of cells was measured on a microplate reader and the percentage of bacterial cell inhibition with respect to controls was calculated. The MIC value was defined as the lowest compound concentration at which the growth of bacteria was inhibited by ≥90%. Three independent assays were performed for each compound.
(§3) Results: Three compounds, namely 14av_amine16, 14dv_amine16 and 14dv_amine06, were selected to be tested against nine in-house clinically isolated bacterial strains including S. aureus ATCC29247, which is an ampicillin resistant strain, S. aureus ATCC BAA-41, ATCC BAA-1717, ATCC BAA-1720, ATCC 43300 which are methicillin resistant strains and four USA300 strains, (#417, #757, #1799 and #2690), which are the predominant strain type of community-associated MRSA strains in the United States.

In assay [4] the test system is S. aureus ATCC 29247 (ampicillin resistant strain). Nature of the assay: MIC against clinically isolated strain 1. The conditions noted are these: Staphylococcus aureus, ATCC29247. It counts as cell-based. The procedure:
as §2, §3

The test system of assay [5] is S. aureus ATCC 43300 (methicillin resistant). Nature of the assay: MIC against clinically isolated strain 5. The note with it: Staphylococcus aureus, ATCC43300. The format is cell-based. The procedure: as §2, §3

The compound `CCC(CC)c1cc(CCN2CCCN(Cc3ccc(C(F)(F)F)cc3)CC2)nc(-c2ccncc2)n1` [Compound 14av_amine16, 1-(2-(6-(pentan-3-yl)-2-(pyridin-4-yl)pyrimidin-4-yl)ethyl)-4-(4-(trifluoromethyl)benzyl)-1,4-diazepane] came in with an inhibition at 50 µM on S. aureus FtsZ [1] (compound at 50 μM) of roughly 20%. The compound further came in with an inhibition at 75 µM on S. aureus FtsZ [1] (compound at 75 μM) of roughly 25%. Moreover, the “inhibition of FtsZ polymerization” value against S. aureus FtsZ [2] is reported as “Complete inhibition”. Moreover, the MIC in assay [3] turned out to be 12 µM (≈ 6.14 µg/mL); in assay [4], 8 µM (≈ 4.09 µg/mL); in assay [5] it was 12 µM (≈ 6.14 µg/mL).
